Test results from US8772305B2, “Substituted pyridinyl-pyrimidines and their use as medicaments” (Boehringer Ingelheim International GmbH, priority 2011, dated 2014).
pIC50: −log10 of the molar value.

Target: Recombinant human Syk (amino acids 342-635), GST-Syk kinase fusion protein (Homo sapiens (Human), UniProt P43405)
Assay: In vitro Syk kinase test (Kinase Glo luminescence)
Details: read-out: SYK Enzyme IC50, GST-Syk 4 nM, ATP remaining after 60 min at room temperature
Protocol: The catalytic activity of the GST-Syk kinase fusion protein was determined using the Kinase Glo® Luminescence Kinase test (Promega; V6712). In this homogeneous test the amount of ATP remaining after the kinase reaction is quantified by a luciferin-luciferase reaction using luminescence. The luminescence signal obtained correlates with the amount of ATP still present and thus correlates inversely with the activity of the protein kinase.
GST-Syk was diluted to 6.0 nM in the test buffer and 10 μl of this dilution were used in the kinase test (final concentration of Syk=4 nM in a total volume of 15 μl). […]
After 60 minutes, 10 μl Kinase-Glo® solution (Promega, Cat. #V6712) (heated to room temperature) were added to each well and incubation was continued for a further 15 minutes. The plates were read in a Microplate Scintillation and Luminescence Counter (Canberra Packard GmbH). […]
The output file of the “Counter” is a text file that contains the well number and measured counts in two columns. […] Based on this values the % inherent value for the measurement of each substance concentration was calculated using an “MS-Excel—VB macro”. […] The IC50 values were calculated from the % inhibition values using “GraphPadPrism” software (Version 5) (GraphPad Software Inc.).

- pIC50: 7.75
SMILES: CNC(=O)c1c[nH]c2ccc(Nc3nccc(-c4ccccn4)n3)cc12 [Example 284]
